The structures appear in SMILES notation. In brackets after ≈: the same amount, converted by molar mass.

The subject of experiment [1] is Pseudomonas aeruginosa. Kind of experiment: Antibiofilm activity against Pseudomonas aeruginosa PAO1 assessed as inhibition of biofilm formation incubated for 24 hrs by crystal violet staining based assay. Format: functional, organism-based. The following applies: PAO1, 24 h.
Experiment [2] deals with Pseudomonas aeruginosa. Kind of experiment: Antibiofilm activity against Pseudomonas aeruginosa assessed as reduction in biofilm formation incubated for 24 hrs relative to control. Set-up: scale not given: the % may be the effect or the level left. The experiment is classed as functional.
Experiment [3] relates to Pseudomonas aeruginosa. Kind of experiment: Antimicrobial activity against Pseudomonas aeruginosa assessed as reduction in microbial growth. The experiment is classed as functional, organism-based.
For experiment [4], the system named is Pseudomonas aeruginosa. Briefly: Downregulation of pqsR mRNA expression in Pseudomonas aeruginosa PAO1. Format: functional.
For experiment [5], the system named is Pseudomonas aeruginosa. Kind of experiment: Antibiofilm activity against Pseudomonas aeruginosa PAO1 assessed as inhibition of biofilm formation at 16 ug/ml incubated for 24 hrs by crystal violet staining based assay relative to control. Format: functional. More on the design: scale not given: the % may be the effect or the level left. The following applies: dose 16 µg/ml.

Experiment [6] deals with Pseudomonas aeruginosa. Briefly: Antibacterial activity against Pseudomonas aeruginosa PAO1 by broth microdilution method. Format: functional.
The subject of experiment [7] is Pseudomonas aeruginosa. Briefly: Downregulation of pqsA mRNA expression in Pseudomonas aeruginosa PAO1. Format: functional.
Experiment [8] concerns Pseudomonas aeruginosa. Kind of experiment: Antibacterial activity against Pseudomonas aeruginosa ATCC 27853 assessed as bacterial growth inhibition by agar diffusion assay. Format: functional.
Experiment [9] deals with Pseudomonas aeruginosa. Kind of experiment: Antibacterial activity against Pseudomonas aeruginosa ATCC 27853. Format: functional, organism-based.
In experiment [10] the test system is Pseudomonas aeruginosa. Briefly: Anti-virulence activity in Pseudomonas aeruginosa PAO1 assessed as reduction in pyoverdine production at 160 ug/ml by absorbance based analysis relative to control. The experiment is classed as functional. More on the design: scale not given: the % may be the effect or the level left. The following applies: dose 160 µg/ml.
Experiment [11] has as its system Pseudomonas aeruginosa. Briefly: Antivirulence activity in Pseudomonas aeruginosa PAO1 assessed as reduction in pyocyanin production at 10 uM incubated for 24 hrs by absorbance based analysis relative to control. Format: functional. Set-up: scale not given: the % may be the effect or the level left.
In experiment [12] the test system is Staphylococcus aureus. Kind of experiment: Antibacterial activity against Methicillin-resistant Staphylococcus aureus. Format: functional.
The test system of experiment [13] is Pseudomonas aeruginosa. Kind of experiment: Anti-virulence effect in Pseudomonas aeruginosa PAO1 assessed as inhibition of rhamnolipid production at 10 uM relative to control. Format: functional. Set-up: scale not given: the % may be the effect or the level left.
For experiment [14], the system named is Staphylococcus aureus. Kind of experiment: Antibacterial activity against Methicillin-sensitive Staphylococcus aureus. The experiment is classed as functional.
In the next experiment the test system is Bacillus subtilis. Briefly: Antibacterial activity against Bacillus subtilis. The experiment is classed as functional.
The subject of experiment [15] is Pseudomonas aeruginosa. Kind of experiment: Antivirulence activity against Pseudomonas aeruginosa PAO1 assessed as reduction in pyocyanin level at 10 uM relative to control. More on the design: scale not given: the % may be the effect or the level left. The experiment is classed as functional.
The subject of another experiment is Escherichia coli. Briefly: Antibacterial activity against Escherichia coli. Format: functional.
For the next experiment, the system named is Bacillus pumilus. Briefly: Antibacterial activity against Bacillus pumilus. The experiment is classed as functional.
Experiment [16] has as its system Pseudomonas aeruginosa. Kind of experiment: Antibacterial activity against Pseudomonas aeruginosa. Format: functional.
In experiment [17] the test system is Pseudomonas aeruginosa. Briefly: Antibiofilm activity against Pseudomonas aeruginosa ATCC 27853 assessed as reduction in biofilm biomass at 16 ug/ml relative to control. Format: functional. Set-up: scale not given: the % may be the effect or the level left. The following applies: dose 16 µg/ml.
For experiment [18], the system named is Pseudomonas aeruginosa. Briefly: Antimicrobial activity against Pseudomonas aeruginosa PAO1 assessed as inhibition of bacterial growth measured for 18 hrs by CLSI-based broth microdilution method. Format: functional. (Broth dilution looks for growth in wells or tubes with falling amounts of substance.)
The test system of experiment [19] is Pseudomonas aeruginosa. Briefly: Antibiofilm activity against Pseudomonas aeruginosa PAO1 assessed as inhibition of biofilm formation at 1 to 100 uM incubated for 24 hrs by crystal violet staining based assay relative to control. The experiment is classed as functional. More on the design: scale not given: the % may be the effect or the level left. The following applies: dose 1-100 µM.

Experiment [20] has as its system Pseudomonas aeruginosa. Kind of experiment: Antivirulence activity against Pseudomonas aeruginosa PAO1 assessed as inhibition of pyocyanin production at 16 ug/ml relative to control. More on the design: scale not given: the % may be the effect or the level left. The following applies: dose 16 µg/ml. Format: functional.
Experiment [21] concerns Pseudomonas aeruginosa. Briefly: Antibiofilm activity against Pseudomonas aeruginosa ATCC 15442 assessed as inhibition of biofilm formation at 16 ug/ml relative to control. The experiment is classed as functional. More on the design: scale not given: the % may be the effect or the level left. Particulars: dose 16 µg/ml.
Experiment [22] concerns Pseudomonas aeruginosa. Kind of experiment: Antibacterial activity against Pseudomonas aeruginosa ATCC 15442 assessed as reduction in bacterial cell growth incubated for 18 hrs by two fold serial microdilution method. The experiment is classed as functional.
Experiment [23] deals with Pseudomonas aeruginosa. Kind of experiment: Antibacterial activity against Pseudomonas aeruginosa PAO1 assessed as reduction in bacterial growth by broth microdilution method. The experiment is classed as functional, organism-based.
Experiment [24] can be described thus: Inhibition of quorum sensing system in Pseudomonas aeruginosa PAO1 expressing lasI-gfp assessed as inhibition of lasI expression at 50 ug/ml incubated for 8 hrs under shaking condition by microplate reader based analysis relative to control. Particulars: dose 50.0 µg/ml.
For experiment [25], the system named is Pseudomonas aeruginosa. Briefly: Antivirulence activity in Pseudomonas aeruginosa PAO1 assessed as reduction in elastase production at 10 uM incubated for 24 hrs by elastin-congo red dye based absorbance assay relative to control. The experiment is classed as functional. More on the design: scale not given: the % may be the effect or the level left.
Experiment [26] has as its system Pseudomonas aeruginosa. Briefly: Antibacterial activity against Pseudomonas aeruginosa PAO1 assessed as reduction in bacterial growth. The experiment is classed as functional.
In experiment [27] the test system is Pseudomonas aeruginosa. Kind of experiment: Antivirulence activity against Pseudomonas aeruginosa PAO1 assessed as reduction in pyocyanin production at 20 ug/ml relative to control. The experiment is classed as functional. More on the design: scale not given: the % may be the effect or the level left. The following applies: dose 20 µg/ml.
The test system of experiment [28] is Pseudomonas aeruginosa. Kind of experiment: Antibiofilm activity against Pseudomonas aeruginosa PAO1 assessed as inhibition of biofilm formation at 16 microg/ml incubated for 20 hrs by crystal violet staining based analysis. Particulars: dose 16 µg/ml. The experiment is classed as functional. Set-up: scale not given: the % may be the effect or the level left.

Experiment [29] is described as follows: Inhibition of quorum sensing system in Pseudomonas aeruginosa PAO1-rhlA-gfp assessed as inhibition of rhlA expression at 50 ug/ml incubated for 8 hrs by microplate reader based analysis relative to control. Particulars: dose 50.0 µg/ml.
The subject of experiment [30] is Pseudomonas aeruginosa. Kind of experiment: Downregulation of lasR mRNA expression in Pseudomonas aeruginosa PAO1 at 16 ug/ml relative to control. Format: functional. The following applies: dose 16 µg/ml.
Experiment [31] relates to Pseudomonas aeruginosa. Kind of experiment: Antibiofilm activity against Pseudomonas aeruginosa PAO1 assessed as reduction in biofilm formation at 16 ug/ml incubated for 2 to 4 hrs by crystal violet staining based analysis relative to control. Set-up: scale not given: the % may be the effect or the level left. Format: functional. Particulars: dose 16 µg/ml; time 2-4 hrs.

For experiment [32], the system named is Pseudomonas aeruginosa. Briefly: Downregulation of rhlR mRNA expression in Pseudomonas aeruginosa PAO1 at 160 ug/ml incubated for 6 hrs by RT-qPCR analysis relative to control. The following applies: dose 160 µg/ml. The experiment is classed as functional. For orientation: Real-time PCR tracks product formation cycle by cycle.
In experiment [33] the test system is Pseudomonas aeruginosa. Briefly: Downregulation of lasI mRNA expression in Pseudomonas aeruginosa PAO1 at 16 ug/ml relative to control. Format: functional. The following applies: dose 16 µg/ml.
The nature of experiment [34]: Inhibition of quorum sensing system in Pseudomonas aeruginosa PAO1 expressing lasB-gfp at 16 uM relative to control.
The test system of experiment [35] is Pseudomonas aeruginosa. Kind of experiment: Antibacterial activity against Pseudomonas aeruginosa PAO1-L. Format: functional, organism-based.
A short description of experiment [36]: Inhibition of quorum sensing system in Pseudomonas aeruginosa PAO1 expressing lasB-gfp.
Experiment [37] relates to Pseudomonas aeruginosa. Briefly: Antibiofilm activity against Pseudomonas aeruginosa ATCC 27853 assessed as reduction in biofilm formation at 10 uM relative to control. Format: functional. More on the design: scale not given: the % may be the effect or the level left.
Experiment [38] deals with Pseudomonas aeruginosa. Kind of experiment: Anti-virulence activity against Pseudomonas aeruginosa PAO1-L assessed as reduction in pyocyanin production at 10 uM incubated for 24 hrs by absorbance based analysis relative to control. Format: functional. Set-up: scale not given: the % may be the effect or the level left.

Usually IC50 stands for the midpoint of a concentration-inhibition curve. For `CCn1ccnc1`, the IC50 in the experiment on Pseudomonas aeruginosa [1] is 400 nM.
As for `Nc1ccc(S(=O)(=O)Nc2ccc3c(c2)OC2C=C(O)C=C(O)C2C3=O)cc1` (centres undefined), in the experiment on Pseudomonas aeruginosa [2], the Activity is recorded as 50%. Further, the IC50 with Pseudomonas aeruginosa [3] came to 100 µM.
The term MIC denotes the lowest concentration that inhibits growth of the organism. Turning to `Cc1nc2ccccc2nc1CSc1nc2ccccc2c(=O)n1-c1ccc(F)cc1`, the Activity is listed as 90% in the experiment on Pseudomonas aeruginosa [4], 46.37% in the experiment on Pseudomonas aeruginosa [5] and 90% with Pseudomonas aeruginosa [7]. Also, the MIC in the experiment on Pseudomonas aeruginosa [6] came to 500 µM (≈ 214 µg/mL).
Turning to `O=C(CSc1nc2ccccc2s1)c1ccc2c(c1)OCCO2`, the MIC in the experiment with Pseudomonas aeruginosa [8] is more than 512 µg/mL. In addition, in the experiment with Pseudomonas aeruginosa [9], the IC50 amounted to 115 µg/mL (≈ 335 µM).
In the case of `CCCCCCCCn1ccnc1`, the Activity in the experiment with Pseudomonas aeruginosa [10] worked out at 88%; in the experiment on Pseudomonas aeruginosa [11], 97.37%. The IC50 with Pseudomonas aeruginosa [1] is 740 nM.
Consider `COc1ccc(OCCCCCCCC(=O)NNC(=O)Cn2c(=O)oc3ncccc32)cc1`, for which the minimum inhibitory concentration (MIC) with Staphylococcus aureus [12], in the experiment with Staphylococcus aureus [14], with Bacillus subtilis, with Escherichia coli, in the experiment with Bacillus pumilus and against Pseudomonas aeruginosa [16] was more than 512 µg/mL throughout. For the same compound, the Activity stood at 6.34% in the experiment on Pseudomonas aeruginosa [13] and 53.1% in the experiment with Pseudomonas aeruginosa [15].
In the case of `COc1ccc(/C=C/C(=O)O)cc1OC`, in the experiment with Pseudomonas aeruginosa [17], the Activity is 15.79%.
On to `COc1ccc(-c2coc3cc(O)cc(O)c3c2=O)cc1` [BIOCHANIN], for which the minimal inhibitory concentration (MIC) in the experiment with Pseudomonas aeruginosa [18] is 0.48 µg/mL (≈ 1.69 µM).
On to `Oc1ccc2c(c1)OC[C@](O)(Cc1ccc(O)c(O)c1)[C@H]2O` [SAPPANOL], for which the Activity in the experiment on Pseudomonas aeruginosa [19] was 54.26%.
For the compound `Cc1nc2cccc(Br)c2c(=O)n1/N=C/c1ccc(O)cc1`, the values for the Activity in the experiment with Pseudomonas aeruginosa [20] and in the experiment with Pseudomonas aeruginosa [21] were 99.5% and 25%, respectively. Besides, the MIC with Pseudomonas aeruginosa [22] is more than 50 µM.
For `COP(=O)(NCCCCOc1cc(O)c2c(=O)cc(-c3ccccc3)oc2c1)OC`, the IC50 in the experiment on Pseudomonas aeruginosa [3] was 100 µM.
In the case of `O=C(CN[C@H]1CCOC1=O)Nc1ccc(C/C=C/c2ccccc2)cc1`, in the experiment on Pseudomonas aeruginosa [23], the MIC came to 5 µM (≈ 1.75 µg/mL).
Consider `O=c1c(-c2ccc(O)cc2)coc2cc(O)cc(O)c12` [GENISTEIN], for which the MIC with Pseudomonas aeruginosa [18] stood at 0.48 µg/mL (≈ 1.78 µM).
Same read-out and setting: for `O=c1c(-c2ccc(O)cc2)coc2cc(O)ccc12` [DAIDZEIN] the value was 45 µg/mL (≈ 177 µM).
Consider `CCCCCCCn1ccnc1`, for which, in the experiment with Pseudomonas aeruginosa [1], the IC50 came to 3290 nM.
For orientation: inhibition means how much of the control response was suppressed. As for `O=C(CCc1ccc(Br)cc1)NC1CCOC1=O` (centres undefined), the inhibition in [24] was 87%; in experiment [29], 80%. Moreover, the results for the Activity in the experiment with Pseudomonas aeruginosa [25], with Pseudomonas aeruginosa [27] and in the experiment on Pseudomonas aeruginosa [28] were 44%, 19% and 48%, respectively. For the same compound, the MIC in the experiment with Pseudomonas aeruginosa [26] worked out at 10 µM (≈ 3.12 µg/mL).
`O=C(O)CCc1ccc(O)c(O)c1` [DIHYDROCAFFEIC ACID]: the Activity with Pseudomonas aeruginosa [17] stood at 19.82%.
As for `C=CCc1ccc(O)c(OC)c1` [EUGENOL], the Activity in the experiment on Pseudomonas aeruginosa [30] came to 51%; with Pseudomonas aeruginosa [31] it was 50%; with Pseudomonas aeruginosa [32], 65%; with Pseudomonas aeruginosa [33], 52%.
Turning to `CC(C)OP(=O)(NCCCCOc1cc(O)c2c(=O)cc(-c3ccccc3)oc2c1)OC(C)C`, the IC50 with Pseudomonas aeruginosa [3] is 100 µM.
As to `O=C(CNc1ccc(C(=O)/C=C/c2ccc(-c3ccccc3)cc2)cc1)N[C@@H]1CCOC1=O`, the MIC with Pseudomonas aeruginosa [23] turned out to be 5 µM (≈ 2.2 µg/mL).
In experiment [34], `CCCCC/C=C\C/C=C\CCCCCCCC(=O)O` yielded an inhibition of 41%.
As to `N#CCc1ccc(OC[C@H](O)Cn2cnc3ccc(Cl)cc3c2=O)cc1`, the half-inhibitory concentration (IC50) with Pseudomonas aeruginosa [35] was 4.3 µM; in experiment [36], 1000 nM. Moreover, the Activity with Pseudomonas aeruginosa [37] is reported as 52%; in the experiment with Pseudomonas aeruginosa [38], 80%.
